Measured values taken from publication PMC12799219, “In vitro and in vivo studies on the activity and selectivity of butoconazole in experimental infection by Trypanosoma cruzi” (Memórias do Instituto Oswaldo Cruz, 2026).
Read-outs that look alike come from different tables or passages of the source.

What was measured:
T. cruzi satDNA = experiment: In vivo efficacy by qPCR (T. cruzi satDNA) in blood and heart; set-up: species or system Swiss male mice; details: for qPCR on blood samples, parasite DNA amplification: first trial, surviving mice: BZ 25 mg/kg/day, BTZ 45.61 mg/kg/day; for qPCR on blood samples, animals that amplified parasite DNA: second trial, higher doses: BZ 100, BTZ 182.44 mg/kg/day
Method: In vivo efficacy assessments by qPCR evaluations - At the end point, the animals were weighed; euthanised and submitted to cardiac puncture. 500 μL of fresh blood was collected and added to 1 mL of guanidine. The DNA was extracted from 300 μL of guanidine-EDTA blood, using the kit High Pure PCR Template Preparation (Roche diagnostics, Mannhein, Germany), according to the manufacturer's instructions. At the last step of the protocol, DNA was eluted in 100 μL of elution buffer. Also, cardiac tissues were collected, weighed and fragmented using a scalpel, 200 μL of Tissue Lysis Buffer was added and samples immediately placed in Styrofoam with dry ice. Blood and heart tissues were stored in the freezer at […] until analysis by qPCR. Heart tissues were homogenised using a Tissue Homogeneizer (Qiagen). DNA was extracted using the kit High Pure PCR Template Preparation (Roche diagnostics, Mannhein, Germany), according to the manufacturer's instructions for tissue samples. qPCR was done using a TaqMan multiplex assay, targeting T. cruzi […] and mouse GAPDH, as an endogenous control, and to normalise the parasite load. To obtain standard curves, serial dilutions of the DNA were prepared in appropriate plates for the assay. After normalising the results obtained on the samples, the parasite load was expressed as parasite equivalents/mL when evaluated in blood, or parasite equivalents/mg when in mouse tissue. In all trials, positive and negative controls were also tested in parallel.

[1] = In vivo pharmacokinetic study, plasma levels by LC-MS/MS; set-up: species or system BALB/c mice; details: mice, single dose 100 mg/kg i.p.
Method: In vivo pharmacokinetic study - Adult male specific-pathogen-free BALB/c mice, provided by the Faculty of Veterinary Sciences, National University of La Plata (FCV-UNLP) were used. Animals were housed in cages with four animals per cage, under a 12 h light/dark cycle and controlled temperature, provided with water and food ad libitum and environmental enrichment. A minimum period of six days was given after transport for physiological acclimatisation before any procedure. Five groups of mice (n = 3 per group) were used, one per sampling time. […] Plasma was obtained immediately after blood collection by centrifugation for 10 min at 4,000 rpm and conserved at -17 °C until quantification. […]
The equipment used was a Waters Alliance 2695 HPLC coupled to a tandem quadrupole mass spectrometer, Premier XE (Waters Corp.), equipped with an electrospray ionisation source operating in positive mode (ESI+). […] The mass spectrometer was configured to operate in multiple reaction monitoring (MRM) mode, employing two mass transitions for the compound, one for quantification (411.0 > 164.9) and the other for confirmation (413.2 > 164.9).
Unbound drug concentrations in plasma were estimated by multiplying the analytically determined total drug concentrations by the unbound fraction predicted by Deep-PK.[27]

[2] = system: T. cruzi intracellular forms (Tulahuen strain) in L929 cell lines; experiment: Drug combination (fixed-ratio, FICI) on intracellular forms of T. cruzi; type: cell-based, Trypanosoma cruzi; set-up: Drug concentration (EC50 in fixed-ratio series): unit not given here
Method: Drug combination on intracellular forms of T. cruzi - L929 were seeded in 96-well plates (4 x 10^3 cells/well) and infected with T. cruzi (Tulahuen strain). Predetermined EC50 values were used to determine the top concentrations of the test compounds under fixed ratios ensuring that EC50 fell in the midpoint of a seven-point two-fold dilution series. The fixed ratios were 5:0, 4:1, 3:2, 2:3, 1:4 and 0:5.[24] ^, [25] According to Odds (2003), the Fractional Inhibitory Concentration Indexes (FICI) was calculated by the ratio of the EC50 values of each ratio of the combinations/EC50 of each compound alone. Finally, the sum of the FICIs (ƩFICI) is calculated to classify the interaction nature of the combinations.[26] ΣFICI ≤ 0.5 = Synergism; ΣFICI between 0.5 and 4 = additive (No interaction); ΣFICI > 4 = antagonism. At least two independent experiments were performed in triplicate.

[3] = system: T. cruzi intracellular forms (Tulahuen strain); experiment: In vitro activity on intracellular forms of T. cruzi in L929 cells (β-galactosidase/CPRG); type: cell-based, Trypanosoma cruzi; details: for EC90: read-out: Activity against T. cruzi intracellular forms EC90
Method: In vitro activity on intracellular forms of T. cruzi - L929 cells previously seeded in 96-well plates (4 x 10^3 cells/well) were infected (ratio of 10 parasites:1 host cell) for 2 h with trypomastigote forms (Tulahuen strain transfected with the β-galactosidase gene, DTU VI).

[4] = Trypanosoma cruzi, TULAHUEN, L929, 96 h, read-out: Activity against T. cruzi intracellular forms EC50, Tulahuen strain in L929, 96 h

**Q.** With `Clc1ccc(CCC(Cn2ccnc2)Sc2c(Cl)cccc2Cl)cc1` (stereo not shown) [BTZ, butoconazole] as the molecule, how does the “mice with negative qPCR in cardiac samples” value (T. cruzi satDNA; BTZ 184 mg/kg/day as printed) read?
**A.** two of five

**Q.** What about the “qPCR on blood samples, parasite DNA amplification” value (T. cruzi satDNA) of the same molecule?
**A.** negative (three of three animals)

**Q.** What about the “qPCR on blood samples, animals that amplified parasite DNA” value (T. cruzi satDNA) of the same molecule?
**A.** only one animal

**Q.** And the “mean peak total plasma concentration” value [1]?
**A.** 25.9 µM

**Q.** What about the “time of mean peak plasma concentration” value [1] of the same molecule?
**A.** 2 h

**Q.** What about the FICI ([2]; proportion BTZ:BZ 0:5) of the same molecule?
**A.** 0

**Q.** And the “Drug concentration (EC50 in fixed-ratio series)” value ([2]; proportion BTZ:BZ 1:4)?
**A.** 0.008

**Q.** And the FICI ([2]; proportion BTZ:BZ 1:4)?
**A.** 0.26

**Q.** And the “Drug concentration (EC50 in fixed-ratio series)” value ([2]; proportion BTZ:BZ 2:3)?
**A.** 0.012

**Q.** And the FICI ([2]; proportion BTZ:BZ 2:3)?
**A.** 0.37

**Q.** What about the “Drug concentration (EC50 in fixed-ratio series)” value ([2]; proportion BTZ:BZ 3:2) of the same molecule?
**A.** 0.006

**Q.** And the FICI ([2]; proportion BTZ:BZ 3:2)?
**A.** 0.20

**Q.** What about the “Drug concentration (EC50 in fixed-ratio series)” value ([2]; proportion BTZ:BZ 4:1) of the same molecule?
**A.** 0.024

**Q.** What about the FICI ([2]; proportion BTZ:BZ 4:1) of the same molecule?
**A.** 0.76

**Q.** What about the “Drug concentration (EC50 in fixed-ratio series)” value ([2]; proportion BTZ:BZ 5:0) of the same molecule?
**A.** 0.031

**Q.** And the FICI ([2]; proportion BTZ:BZ 5:0)?
**A.** 1

**Q.** And the EC50 ([3]; Trypanosoma cruzi, TULAHUEN, L929, 96 h, Tulahuen strain in L929, 96 h, read-out: Activity against T. cruzi intracellular forms pEC50 (converted))?
**A.** 70.8 nM

**Q.** What about the EC50 [3, 4] of the same molecule?
**A.** 75 nM

**Q.** And the EC90 ([3]; Trypanosoma cruzi, Tulahuen strain in L929, 96 h)?
**A.** 3.88 ± 0.45 µM

**Q.** What about the EC50 ([3]; Tulahuen strain in L929, 96 h, read-out: Activity against T. cruzi intracellular forms EC50) of the same molecule?
**A.** 70 ± 20 nM

**Q.** With `O=C(Cn1ccnc1[N+](=O)[O-])NCc1ccccc1` [BZ, benznidazole] as the molecule, how does the “negative qPCR in cardiac samples” value (T. cruzi satDNA; BZ 100 mg/kg/day) read?
**A.** 100%

**Q.** And the “qPCR on blood samples, parasite DNA amplification” value (T. cruzi satDNA)?
**A.** parasite DNA was amplified in all animals

**Q.** And the “qPCR on blood samples, animals that amplified parasite DNA” value (T. cruzi satDNA)?
**A.** only one animal

**Q.** What about the “Drug concentration (EC50 in fixed-ratio series)” value ([2]; proportion BTZ:BZ 0:5) of the same molecule?
**A.** 1.445

**Q.** What about the FICI ([2]; proportion BTZ:BZ 0:5) of the same molecule?
**A.** 1

**Q.** What about the “Drug concentration (EC50 in fixed-ratio series)” value ([2]; proportion BTZ:BZ 1:4) of the same molecule?
**A.** 0.138

**Q.** What about the FICI ([2]; proportion BTZ:BZ 1:4) of the same molecule?
**A.** 0.10

**Q.** What about the “Drug concentration (EC50 in fixed-ratio series)” value ([2]; proportion BTZ:BZ 2:3) of the same molecule?
**A.** 0.219

**Q.** What about the FICI ([2]; proportion BTZ:BZ 2:3) of the same molecule?
**A.** 0.15

**Q.** And the “Drug concentration (EC50 in fixed-ratio series)” value ([2]; proportion BTZ:BZ 3:2)?
**A.** 0.402

**Q.** What about the FICI ([2]; proportion BTZ:BZ 3:2) of the same molecule?
**A.** 0.28

**Q.** And the “Drug concentration (EC50 in fixed-ratio series)” value ([2]; proportion BTZ:BZ 4:1)?
**A.** 0.738

**Q.** What about the FICI ([2]; proportion BTZ:BZ 4:1) of the same molecule?
**A.** 0.51

**Q.** What about the FICI ([2]; proportion BTZ:BZ 5:0) of the same molecule?
**A.** 0

**Q.** What about the EC50 [3, 4] of the same molecule?
**A.** 1730 ± 160 nM

**Q.** And the EC90 ([3]; Trypanosoma cruzi, TULAHUEN, L929, 96 h)?
**A.** 7.65 ± 1.69 µM

**Q.** And the EC50 ([3]; Trypanosoma cruzi, TULAHUEN, L929, 96 h, read-out: Activity against T. cruzi intracellular forms pEC50, Tulahuen strain in L929, 96 h (converted))?
**A.** 1740 nM
